According to US20250092039A1, “GLUTARIMIDE-CONTAINING PAN-KRAS-MUTANT DEGRADER COMPOUNDS AND USES THEREOF” (Tiger Biotherapeutics Inc., priority 2022, published 2025):

Columns and labels:
KRAS-G12V/RAF1 = KRAS-G12V/RAF1 (Homo sapiens (Human), UniProt P01116, G12V); experiment: KRAS/RAF1 binding inhibition assay (AlphaScreen)
Protocol: Binding affinity against GTP-bound KRAS of the compounds disclosed herein was measured by monitoring the interaction of guanosine 5′-[β,γ-imido]triphosphate-bound (GppNHp-bound) KRAS with the RBD domain of RAF1 in the presence of the test compound. […] The test compounds in 2% DMSO (final concentration) at various concentrations were then added to the reaction mixture and incubated for 60 minutes at 4° C.
Raw ALphaScreen data were converted to a percentage of inhibition (relative to DMSO) using the following equations: • a) For a given test compound concentration X: […]
The IC50 values were determined by nonlinear regression of plots of [inhibitor] vs. percentage of inhibition with variable slope, analyzed using GraphPad Prism (Version 9).

KRAS G12V = KRAS G12V (Homo sapiens (Human), UniProt P01116, G12V); experiment: KRAS G12V degradation in SW620 cells (Western blot, DC50); format: cell-based; conditions: 24 hours
KRAS G12V, sequence (P01116-2 other isoform, or with tags, fused parts or gaps G12V): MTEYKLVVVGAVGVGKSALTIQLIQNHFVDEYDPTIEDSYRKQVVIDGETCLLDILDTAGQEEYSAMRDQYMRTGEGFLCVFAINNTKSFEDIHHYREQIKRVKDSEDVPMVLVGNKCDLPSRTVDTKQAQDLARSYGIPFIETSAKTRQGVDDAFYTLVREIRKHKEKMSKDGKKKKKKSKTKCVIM
Protocol: SW620 (KRAS G12V homozygous), AsPC1 (KRAS G12D homozygous), MIA PaCa2 (KRAS G12C homozygous), A549 (KRAS G12S homozygous) and MCF7 (KRAS WT) cells were obtained from American Type Culture Collection (ATCC). […] The following day, the test compound was administered to the cells by using 1000× compound stock solution prepared in DMSO at various concentrations. After administration of the compound, the cells were then incubated at 37° C. for 24 hours. Upon completion, the cells were washed with PBS and protein was collected in Laemmli sample buffer (1×; VWR International). Proteins in cell lysate were separated by SDS-PAGE and transferred to Odyssey nitrocellulose membranes (Licor) with iblot® dry blotting transfer system (ThermoFisher). Nonspecific binding was blocked by incubating membranes with Intercept Blocking Buffer (Licor) for 1 hour at room temperature with gentle shaking. […] After washing 3 times with TBS-T, the membranes were incubated with IRDye® 800CW goat anti-rabbit IgG (1:20,000, Licor) and IRDye® 680RD goat anti-mouse IgG (1:20,000, Licor) for 1 hour. After TBS-T washes, membranes were rinsed in TBS and Western blot images were acquired by Odyssey CLx (LI-COR Biosciences).
The signal intensity of target proteins was calculated using ImageStudio software. KRAS fluorescent intensity (FLU) from DMSO (vehicle) treatment was set as 100%. Relative KRAS expression level was determined by the following formula: […]
The percentage of KRAS expression was calculated using Microsoft Excel. The half-maximal degradation concentration (DCso) values were generated by GraphPad Prism (Version 9) using the dose-response equation of variable slope (four parameters).

KRAS-G12V/RAF1, sequence (P01116-2 other isoform, or with tags, fused parts or gaps G12V): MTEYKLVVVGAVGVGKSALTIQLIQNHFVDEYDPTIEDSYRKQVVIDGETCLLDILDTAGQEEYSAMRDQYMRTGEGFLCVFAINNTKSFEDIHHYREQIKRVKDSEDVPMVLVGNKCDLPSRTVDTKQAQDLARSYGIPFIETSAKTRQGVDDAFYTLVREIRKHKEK

Compound	IC50 (KRAS-G12V/RAF1) [nM]	DC50 (KRAS G12V) [nM]
CCc1c(F)ccc2cc(O)cc(-c3ncc4c(N5CCC[C@]6(C5)C[C@H](O)C6)nc(OCC5(CN6CCC7(CC6)CC(CN6CCN(c8ccc9c(c8)CN([C@H]8CCC(=O)NC8=O)C9=O)CC6)C7)CC5)nc4c3F)c12 [Compound 99, (S)-3-(5-(4-((7-((1-(((7-(8-ethyl-7-fluoro-3-hydroxynaphthalen-1-yl)-8-fluoro-4-((2s,4r)-2-hydroxy-6-azaspiro[3.5]nonan-6-yl)pyrido[4,3-d]pyrimidin-2-yl)oxy)methyl)cyclopropyl)methyl)-7-azaspiro[3.5]nonan-2-yl)methyl)piperazin-1-yl)-1-oxoisoindolin-2-yl)piperidine-2,6-dione]	20 to 200	> 100
CCc1c(F)ccc2cc(O)cc(-c3ncc4c(N5CCC[C@]6(C5)C[C@@H](O)C6)nc(OCC5(CN6CCC7(CC6)CC(CN6CCN(c8ccc9c(c8)CN([C@H]8CCC(=O)NC8=O)C9=O)CC6)C7)CC5)nc4c3F)c12 [Compound 100, (S)-3-(5-(4-((7-((1-(((7-(8-ethyl-7-fluoro-3-hydroxynaphthalen-1-yl)-8-fluoro-4-((2r,4s)-2-hydroxy-6-azaspiro[3.5]nonan-6-yl)pyrido[4,3-d]pyrimidin-2-yl)oxy)methyl)cyclopropyl)methyl)-7-azaspiro[3.5]nonan-2-yl)methyl)piperazin-1-yl)-1-oxoisoindolin-2-yl)piperidine-2,6-dione]	20 to 200	> 100
CCc1cccc2cc(O)cc(-c3ncc4c(N5C[C@@H]6C[C@H](C5)[C@H](O)C6)nc(OCC5(CN6CCC7(CC6)CC(CN6CCN(c8ccc9c(c8)CN([C@H]8CCC(=O)NC8=O)C9=O)CC6)C7)CC5)nc4c3F)c12 [Compound 101, (S)-3-(5-(4-((7-((1-(((7-(8-ethyl-3-hydroxynaphthalen-1-yl)-8-fluoro-4-((1R,5R,6R)-6-hydroxy-3-azabicyclo[3.2.1]octan-3-yl)pyrido[4,3-d]pyrimidin-2-yl)oxy)methyl)cyclopropyl)methyl)-7-azaspiro[3.5]nonan-2-yl)methyl)piperazin-1-yl)-1-oxoisoindolin-2-yl)piperidine-2,6-dione]	> 200	< 1
CCc1cccc2cc(O)cc(-c3ncc4c(N5CCCn6nc(C(=O)N(C)C)c(Cl)c6C5)nc(OCC5(CN6CCC7(CC6)CC(CN6CCN(c8ccc9c(c8)CN([C@H]8CCC(=O)NC8=O)C9=O)CC6)C7)CC5)nc4c3F)c12 [Compound 102, (S)-3-chloro-5-(2-((1-((2-((4-(2-(2,6-dioxopiperidin-3-yl)-1-oxoisoindolin-5-yl)piperazin-1-yl)methyl)-7-azaspiro[3.5]nonan-7-yl)methyl)cyclopropyl)methoxy)-7-(8-ethyl-3-hydroxynaphthalen-1-yl)-8-fluoropyrido[4,3-d]pyrimidin-4-yl)-N,N-dimethyl-5,6,7,8-tetrahydro-4H-pyrazolo[1,5-a][1,4]diazepine-2-carboxamide]	> 200	< 1
C[C@@]1(O)CCCN(c2nc(OCC3(CN4CCC5(CC4)CC(CN4CCN(c6ccc7c(c6)CN([C@H]6CCC(=O)NC6=O)C7=O)CC4)C5)CC3)nc3c(F)c(-c4cc(O)cc5ccc(F)c(F)c45)ncc23)C1 [Compound 103, (S)-3-(5-(4-((7-((1-(((7-(7,8-difluoro-3-hydroxynaphthalen-1-yl)-8-fluoro-4-((R)-3-hydroxy-3-methylpiperidin-1-yl)pyrido[4,3-d]pyrimidin-2-yl)oxy)methyl)cyclopropyl)methyl)-7-azaspiro[3.5]nonan-2-yl)methyl)piperazin-1-yl)-1-oxoisoindolin-2-yl)piperidine-2,6-dione]	20 to 200	< 1
CCc1cccc2cc(O)cc(-c3ncc4c(N5CCOC[C@@](C)(O)C5)nc(OCC5(CN6CCC7(CC6)CC(CN6CCN(c8ccc9c(c8)CN([C@H]8CCC(=O)NC8=O)C9=O)CC6)C7)CC5)nc4c3F)c12 [Compound 106, (S)-3-(5-(4-((7-((1-(((7-(8-ethyl-3-hydroxynaphthalen-1-yl)-8-fluoro-4-((S)-6-hydroxy-6-methyl-1,4-oxazepan-4-yl)pyrido[4,3-d]pyrimidin-2-yl)oxy)methyl)cyclopropyl)methyl)-7-azaspiro[3.5]nonan-2-yl)methyl)piperazin-1-yl)-1-oxoisoindolin-2-yl)piperidine-2,6-dione]	20 to 200	1 to 10
CCc1cccc2cc(O)cc(-c3ncc4c(N5CCOC[C@](C)(O)C5)nc(OCC5(CN6CCC7(CC6)CC(CN6CCN(c8ccc9c(c8)CN([C@H]8CCC(=O)NC8=O)C9=O)CC6)C7)CC5)nc4c3F)c12 [Compound 107, (S)-3-(5-(4-((7-((1-(((7-(8-ethyl-3-hydroxynaphthalen-1-yl)-8-fluoro-4-((R)-6-hydroxy-6-methyl-1,4-oxazepan-4-yl)pyrido[4,3-d]pyrimidin-2-yl)oxy)methyl)cyclopropyl)methyl)-7-azaspiro[3.5]nonan-2-yl)methyl)piperazin-1-yl)-1-oxoisoindolin-2-yl)piperidine-2.6-dione]	> 200	> 100
C[C@@]1(O)CCCN(c2nc(OCC3(CN4CCC(CN5CCN(c6ccc7c(c6)CN([C@H]6CCC(=O)NC6=O)C7=O)CC5)CC4)CC3)nc3c(F)c(-c4cc(O)cc5ccc(F)c(F)c45)ncc23)C1 [Compound 111, (S)-3-(5-(4-((1-((1-(((7-(7,8-difluoro-3-hydroxynaphthalen-1-yl)-8-fluoro-4-((R)-3-hydroxy-3-methylpiperidin-1-yl)pyrido[4,3-d]pyrimidin-2-yl)oxy)methyl)cyclopropyl)methyl)piperidin-4-yl)methyl)piperazin-1-yl)-1-oxoisoindolin-2-yl)piperidine-2,6-dione]	20 to 200	1 to 10
CCc1c(F)ccc2cc(O)cc(-c3ncc4c(N5CCOC[C@](C)(O)C5)nc(OCC5(CN6CCC(CN7CCN(c8ccc9c(c8)CN([C@H]8CCC(=O)NC8=O)C9=O)CC7)CC6)CC5)nc4c3F)c12 [Compound 112, (S)-3-(5-(4-((1-((1-(((7-(8-ethyl-7-fluoro-3-hydroxynaphthalen-1-yl)-8-fluoro-4-((R)-6-hydroxy-6-methyl-1,4-oxazepan-4-yl)pyrido[4,3-d]pyrimidin-2-yl)oxy)methyl)cyclopropyl)methyl)piperidin-4-yl)methyl)piperazin-1-yl)-1-oxoisoindolin-2-yl)piperidine-2,6-dione]	> 200	> 100
CCc1c(F)ccc2cc(O)cc(-c3ncc4c(N5CCOC[C@](C)(O)C5)nc(OCC5(CN6CCC7(CC6)CC(CN6CCN(c8ccc9c(c8)CN([C@H]8CCC(=O)NC8=O)C9=O)CC6)C7)CC5)nc4c3F)c12 [Compound 113, (S)-3-(5-(4-((7-((1-(((7-(8-ethyl-7-fluoro-3-hydroxynaphthalen-1-yl)-8-fluoro-4-((R)-6-hydroxy-6-methyl-1,4-oxazepan-4-yl)pyrido[4,3-d]pyrimidin-2-yl)oxy)methyl)cyclopropyl)methyl)-7-azaspiro[3.5]nonan-2-yl)methyl)piperazin-1-yl)-1-oxoisoindolin-2-yl)piperidine-2,6-dione]	> 200	> 100
CCc1c(F)ccc2cc(O)cc(-c3ncc4c(N5CCCC(C)(F)C5)nc(OCC5(CN6CCC7(CC6)CC(CN6CCN(c8ccc9c(c8)CN([C@H]8CCC(=O)NC8=O)C9=O)CC6)C7)CC5)nc4c3F)c12 (stereo partly drawn) [Compound 132, (3S)-3-(5-(4-((7-((1-(((7-(8-ethyl-7-fluoro-3-hydroxynaphthalen-1-yl)-8-fluoro-4-(3-fluoro-3-methylpiperidin-1-yl)pyrido[4,3-d]pyrimidin-2-yl)oxy)methyl)cyclopropyl)methyl)-7-azaspiro[3.5]nonan-2-yl)methyl)piperazin-1-yl)-1-oxoisoindolin-2-yl)piperidine-2,6-dione]	> 200	> 100
CCc1c(F)ccc2cc(O)cc(-c3ncc4c(N5CCCOC6CC65)nc(OCC5(CN6CCC(CN7CCN(c8ccc9c(c8)CN([C@H]8CCC(=O)NC8=O)C9=O)CC7)CC6)CC5)nc4c3F)c12 (stereo partly drawn) [Compound 160, (3S)-3-(5-(4-((1-((1-(((4-(2-oxa-6-azabicyclo[5.1.0]octan-6-yl)-7-(8-ethyl-7-fluoro-3-hydroxynaphthalen-1-yl)-8-fluoropyrido[4,3-d]pyrimidin-2-yl)oxy)methyl)cyclopropyl)methyl)piperidin-4-yl)methyl)piperazin-1-yl)-1-oxoisoindolin-2-yl)piperidine-2,6-dione]	20 to 200	> 100
